pIC50: −log10 of the molar value.
What was measured:
[1] = target: Matrix metalloproteinase-9 (Homo sapiens, UniProt P14780); experiment: Inhibition of Matrix metalloprotease-9
[2] = target: T1, Interstitial collagenase (Homo sapiens, UniProt P03956); experiment: Inhibition of Matrix metalloprotease-1
T1 sequence (P03956 whole entry): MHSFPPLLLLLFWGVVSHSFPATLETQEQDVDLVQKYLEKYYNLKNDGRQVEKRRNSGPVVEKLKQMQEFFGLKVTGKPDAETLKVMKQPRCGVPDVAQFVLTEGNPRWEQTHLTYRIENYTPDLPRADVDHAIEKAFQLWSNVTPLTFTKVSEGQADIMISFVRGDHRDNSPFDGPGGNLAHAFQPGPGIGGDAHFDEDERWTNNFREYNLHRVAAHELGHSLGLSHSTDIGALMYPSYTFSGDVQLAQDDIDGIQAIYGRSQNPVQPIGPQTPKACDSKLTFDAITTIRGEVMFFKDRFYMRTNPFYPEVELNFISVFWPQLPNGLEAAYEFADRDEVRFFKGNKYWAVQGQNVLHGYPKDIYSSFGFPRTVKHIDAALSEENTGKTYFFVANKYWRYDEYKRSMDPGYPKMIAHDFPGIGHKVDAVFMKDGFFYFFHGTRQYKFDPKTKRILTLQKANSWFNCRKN

[3] = target: T2, Matrilysin (Homo sapiens, UniProt P09237); experiment: Inhibition of Matrix metalloprotease-7
T2 sequence (P09237 whole entry): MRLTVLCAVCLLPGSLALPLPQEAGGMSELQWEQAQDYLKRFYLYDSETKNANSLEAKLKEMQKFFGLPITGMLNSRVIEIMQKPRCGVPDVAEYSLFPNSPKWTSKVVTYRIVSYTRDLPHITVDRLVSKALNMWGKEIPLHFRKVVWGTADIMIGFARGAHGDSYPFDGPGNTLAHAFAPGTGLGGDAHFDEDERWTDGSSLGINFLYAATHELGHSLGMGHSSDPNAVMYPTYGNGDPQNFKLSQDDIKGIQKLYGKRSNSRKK

[4] = target: Stromelysin-1 (Homo sapiens, UniProt P08254); experiment: Inhibition of Matrix metalloprotease-3
Stromelysin-1, sequence (P08254 whole entry): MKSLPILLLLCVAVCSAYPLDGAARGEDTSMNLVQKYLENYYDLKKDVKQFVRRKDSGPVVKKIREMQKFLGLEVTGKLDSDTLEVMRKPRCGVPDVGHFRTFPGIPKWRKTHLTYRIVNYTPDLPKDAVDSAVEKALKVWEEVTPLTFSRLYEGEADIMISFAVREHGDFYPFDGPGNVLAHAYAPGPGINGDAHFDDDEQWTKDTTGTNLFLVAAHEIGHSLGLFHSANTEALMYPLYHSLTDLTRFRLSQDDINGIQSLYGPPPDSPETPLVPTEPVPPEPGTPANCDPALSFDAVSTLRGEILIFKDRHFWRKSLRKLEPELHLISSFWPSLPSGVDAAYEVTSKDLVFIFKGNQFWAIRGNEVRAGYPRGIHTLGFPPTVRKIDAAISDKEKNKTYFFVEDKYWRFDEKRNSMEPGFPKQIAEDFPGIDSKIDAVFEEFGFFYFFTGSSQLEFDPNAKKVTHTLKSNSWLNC

Matrix metalloproteinase-9, sequence (P14780 whole entry): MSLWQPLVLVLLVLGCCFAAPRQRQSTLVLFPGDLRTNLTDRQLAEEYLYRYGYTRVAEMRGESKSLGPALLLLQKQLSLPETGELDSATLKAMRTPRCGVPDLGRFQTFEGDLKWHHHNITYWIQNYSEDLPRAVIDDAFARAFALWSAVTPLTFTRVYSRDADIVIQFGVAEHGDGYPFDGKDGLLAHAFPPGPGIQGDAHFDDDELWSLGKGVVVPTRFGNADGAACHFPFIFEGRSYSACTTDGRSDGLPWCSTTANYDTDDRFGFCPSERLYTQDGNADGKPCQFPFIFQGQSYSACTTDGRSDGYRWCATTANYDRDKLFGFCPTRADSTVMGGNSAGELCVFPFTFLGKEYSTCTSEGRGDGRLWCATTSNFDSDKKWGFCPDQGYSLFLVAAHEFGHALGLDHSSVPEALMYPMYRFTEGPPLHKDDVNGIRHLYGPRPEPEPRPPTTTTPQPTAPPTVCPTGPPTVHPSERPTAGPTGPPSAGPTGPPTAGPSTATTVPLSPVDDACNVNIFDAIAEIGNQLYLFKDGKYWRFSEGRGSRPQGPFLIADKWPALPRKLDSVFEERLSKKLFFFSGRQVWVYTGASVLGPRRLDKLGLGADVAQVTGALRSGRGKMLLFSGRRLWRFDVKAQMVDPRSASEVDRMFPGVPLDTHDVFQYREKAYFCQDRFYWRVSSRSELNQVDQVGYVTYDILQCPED

Row | SMILES | pIC50 [1] | pIC50 [2] | pIC50 [3] | pIC50 [4]
1 | COc1ccc(S(=O)(=O)N2CC(C)(C)CN(S(=O)(=O)c3ccc(OC)cc3)C2C(=O)NO)cc1 | 8.57 | 7.62 | 7.52 | 
2 | COc1ccc(S(=O)(=O)N2CC(O)CN(S(=O)(=O)c3ccc(OC)cc3)C2C(=O)NO)cc1 (stereo not drawn) | 8.33 | 7.29 | 6.44 | 7.39
3 | COc1ccc(S(=O)(=O)N2CC3(CN(S(=O)(=O)c4ccc(OC)cc4)C2C(=O)NO)SCCCS3)cc1 | 7.81 | 7.10 | 6.91 | 7.71
4 | COc1ccc(S(=O)(=O)N2CCCCN(S(=O)(=O)c3ccc(OC)cc3)C2C(=O)NO)cc1 |  | 6.08 |  | 5.89
5 | COc1ccc(S(=O)(=O)N2CCN(S(=O)(=O)c3ccc(OC)cc3)C2C(=O)NO)cc1 |  | 5.33 |  | 5.97
6 | COc1ccc(S(=O)(=O)N2CCCN(S(=O)(=O)c3ccc(OC)cc3)C2C(=O)NO)cc1 | 8.41 | 7.10 | 6.34 | 7.48
7 | CCCCOc1ccc(S(=O)(=O)N2CC(C)(C)CN(S(=O)(=O)c3ccc(OCCCC)cc3)C2C(=O)NO)cc1 | 7.00 |  | 6.15 | 7.66
8 | COc1ccc(S(=O)(=O)N(Cc2cccnc2)[C@@H](C(=O)NO)C(C)C)cc1 [CGS-27023A] |  |  | 6.97 | 

— ChEMBL document CHEMBL1131091, “Discovery of potent, achiral matrix metalloproteinase inhibitors” (J Med Chem, 1998)
